Earlier results in patent publication US10471156B2, “Pharmaceutical composition comprising amorphous lenalidomide” (SYNTHON B.V., priority 2014, dated 2019).

| solubility in water | aqueous solubility (water) | Compound |
| --- | --- | --- |
| slightly soluble |  | Nc1cccc2c1CN(C1CCC(=O)NC1=O)C2=O (racemic) [Lenalidomide, (RS)-3-(4-Amino-1-oxo 1,3-dihydro-2H-isoindol-2-yl)piperidine-2,6-dione] |
|  | exceeding 600 mg/ml | 2-hydroxypropyl-β-cyclodextrin |
